Data published in patent US9102648B1, “Bioavailable diacylhydrazine ligands for modulating the expression of exogenous genes via an ecdysone receptor complex” (Intrexon Corporation, priority 2003, dated 2015).
In brackets after ≈: the same amount, converted by molar mass.

Columns and labels:
[1] = Aqueous equilibrium solubility in pH 7.4 buffer; conditions: for Solubility pH 7.4: pH 7.4 aqueous buffer, room temperature, equilibrium; for solubility: pH 7.4 aqueous phosphate buffer, pH 7.4, aqueous buffer, thermodynamic from solid
Experimental: (§1) Equilibrium solubility was measured in pH 7.4 aqueous buffer. The buffer was prepared by adjusting the pH of a 0.07 M solution of NaH2PO4 to pH 7.4 with 10 N NaOH. […] At least 1 mg of powder was combined with 1 mL of buffer to make >1 mg/mL mixture. These samples were shaken for ≧2 hours and left to stand overnight at room temperature. The samples were then filtered through a 0.45-μm Nylon syringe filter that was first saturated with the sample. The filtrate was sampled twice, consecutively. The filtrate was assayed by HPLC against standards prepared in methanol.

[2] = tested on: mutated ecdysone receptor-based gene switch; assay: In vivo SEAP induction, ligand administered in rodent chow; design: species or system C57BL/6 mouse; conditions: feed 2 g/kg ad libitum
Experimental: Applicants' ligands are useful in various applications including gene therapy, expression of proteins of interest in host cells, production of transgenic organisms, and cell-based assays. In vivo induction of a reporter enzyme with various ligands of the present invention was evaluated in a C57BL/6 mouse model system containing a gene switch.
Each element of the gene switch was on a separate plasmid. Receptor expression was under the control of a CMV promoter (SEQ ID NO: 15). Induction was evaluated by the amount of reporter protein expressed in the presence of ligand.
SEAP expression in serum of mice was evaluated after electroporation of the gene switch into mouse quadriceps. Mice were anesthetized with 2 μL/g of a mixture of ketamine (100 mg/mL) and xylazine (20 mg/mL). Animals were then shaved, DNA vectors injected into the muscle in a volume of 2×50 μL polyglutamic acid (12 mg/mL water), electrode conductivity gel applied, and an electrode caliber (1 cm×1 cm; model 384) was placed on hind leg. The muscle was electroporated with 200 V/cm, 8 times, for 20 msec/pulse, at 1 sec time intervals. The transverse electrical field direction was reversed after the animals received half of the pulses. Electroporation was performed with an ECM 830 electroporator from BTX Molecular Delivery Systems.
In some experiments mice received an intraperitoneal injection (IP) of 2.6 μmol of ligand in 50 μL of DMSO 3 days after electroporation of the gene switch. In other experiments the concentration of ligand was decrease to 26 nmol/50 μL of DMSO/mouse. SEAP expression was evaluated 2-11 days after ligand administration. In other experiments ligand was administered in rodent chow. The chow was prepared by dissolving 2 g of ligand in 20 mL of acetone and adding it to 1 kg of LabDiet 5010 autoclavable chow from Purina Mills. This was thoroughly mixed in a Hobart mixer and then mixed for an additional 15 min in a Cross Blend mixer. Animals received chow ad libitum for 1, 2, or 3 days. All values are the average from four animals. Background SEAP in sera from animals treated with vector alone without ligand addition was 0-11 ng/mL serum.
Mouse serum was obtained by centrifugation of blood acquired by retroorbital bleeding with a small glass capillary tube. SEAP quantification was determined using a Clontech Great Escape chemiluminescence kit and by comparison with the Clontech SEAP standard.
Table 11: Induction of SEAP in C57BL/6 mice with GS™-E ligand or RG-103309 administered in rodent chow. SEAP expression in serum of mice was evaluated after electroporation of the gene expression cassettes into mouse quadriceps. Mice received GS™-E ligand or RG-103309 in their feed (2 g/kg) 3 days after electroporation. Feed was administered ad libitum for 1, 2, or 3 days. After each interval ligand-treated feed was removed and animals received untreated feed. Values are the average from 4 animals.

physchem [3] = conditions: water, kinetic from dmso stock
Experimental: Aqueous solutions are prepared as follows in triplicate: 50 μl of a 10,000 ppm solution (2,000 μg of solid dissolved in 200 μl of methanol) of the substrate in methanol or DMSO is added to 1 mL of de-ionized water in a 2 dram or smaller vial with magnetic stirring. Stirring is continued overnight at ambient temperature. The slurry is taken up into a syringe with a luer tip. The contents are passed through a new 13 mm 0.2 ρM Acrodisc filter (tuffryn or glass fiber) into an autosampler bottle. For preparation of calibration standard solutions: dilutions of the 10,000 ppm solution were prepared at 10, 5, 1, 0.5, and 0.2 ppm. […] For more soluble materials, dilution of the samples into this range is preferable to increasing the calibration range because the non-linearity of the response results in less useful calibration curves. However a shift in the range of calibration standards is required for very insoluble compounds.
Chromatography of the samples was then preformed. For most diacylhydrazines the following conditions were adequate for the measurement. Other columns and gradients may be substituted as appropriate.
Analysis of the test samples is conducted as follows: Each solubility replicate is analyzed in duplicate. […] Standard curves are obtained from duplicate injections of the standards. The concentration of the substrate is determined by calculation from the equation relating concentration and response.

physchem [4] = conditions: pH 7.4, aqueous buffer, thermodynamic from solid
Experimental: as §1

CC(=O)c1ccc(C(=O)NN(C(=O)c2cc(C(=O)O)cc(C(=O)O)c2)C(C)(C)C)cc1 [RG-100150]
Solubility pH 7.4 [1]: ≧1.0 mg/mL

CCc1ccc(C(=O)NN(C(=O)c2cc(C)cc(C)c2)C(C)(C)C)c(F)c1 [RG-101523, 3,5-Dimethyl-benzoic acid N-tert-butyl-N′-(4-ethyl-2-fluoro-benzoyl)-hydrazide]
solubility [1]: 1 µg/mL (≈ 2.7 µM)

CCc1ccc(C(=O)NN(C(=O)c2cc(C)cc(C)c2)C(C)(C)C)cc1 [RG-102125]
solubility [1]: 0.6 µg/mL (≈ 1.7 µM)

CCc1c(OC)cccc1C(=O)NN(C(=O)c1cc(C)cc(C)c1)C(C)(C)C [RG-102240, N-(3-methoxy-2-ethylbenzoyl)-N′-(3,5-dimethylbenzoyl)-N′-tert-butylhydrazine]
Secreted Alkaline Phosphatase Day 2 ([2]; dose period 1 day): 7,302 ng/ml mouse sera
Secreted Alkaline Phosphatase Day 3 ([2]; dose period 1 day): 7,670 ng/ml mouse sera
Secreted Alkaline Phosphatase Day 7 ([2]; dose period 1 day): 3,784 ng/ml mouse sera
Secreted Alkaline Phosphatase Day 2 ([2]; dose period 2 day): 13,046 ng/ml mouse sera
Secreted Alkaline Phosphatase Day 3 ([2]; dose period 2 day): 15,831 ng/ml mouse sera
Secreted Alkaline Phosphatase Day 7 ([2]; dose period 2 day): 8,816 ng/ml mouse sera
Secreted Alkaline Phosphatase Day 2 ([2]; dose period 3 day): 8,064 ng/ml mouse sera
Secreted Alkaline Phosphatase Day 3 ([2]; dose period 3 day): 11,392 ng/ml mouse sera
Secreted Alkaline Phosphatase Day 7 ([2]; dose period 3 day): 8,372 ng/ml mouse sera
solubility [1]: 0.7 µg/mL (≈ 1.83 µM)

Cc1cc(C)cc(C(=O)N(NC(=O)c2ccc3c(c2C)OCCO3)C(C)(C)C)c1 [RG-102317, N-(5-methyl-1,4-benzodioxan-6-carbonyl)-N′-(tert-butyl)-N′-(3,5-dimethylbenzoyl)hydrazine]
solubility kinetic (physchem [3]): 10.1 µM (≈ 4 µg/mL)
solubility (physchem [4]): 4.3 µg/mL (≈ 10.8 µM)

COc1cccc(C(=O)NN(C(=O)c2cc(C)cc(C)c2)C(C)(C)C)c1C [RG-102398]
solubility [1]: ≤ 0.2 µg/mL

CCC(N(NC(=O)c1cccc(C)c1C)C(=O)c1cc(C)cc(C)c1)C(C)(C)C (stereo not drawn) [RG-103309, 3,5-dimethyl-benzoic acid N′-(2,3-dimethyl-benzoyl)-N-(1-ethyl-2,2-dimethyl-propyl)-hydrazide]
Secreted Alkaline Phosphatase Day 2 ([2]; dose period 1 day): 9,003 ng/ml mouse sera
Secreted Alkaline Phosphatase Day 3 ([2]; dose period 1 day): 14,850 ng/ml mouse sera
Secreted Alkaline Phosphatase Day 7 ([2]; dose period 1 day): 5,172 ng/ml mouse sera
Secreted Alkaline Phosphatase Day 2 ([2]; dose period 2 day): 6,971 ng/ml mouse sera
Secreted Alkaline Phosphatase Day 3 ([2]; dose period 2 day): 16,518 ng/ml mouse sera
Secreted Alkaline Phosphatase Day 7 ([2]; dose period 2 day): 7,460 ng/ml mouse sera
Secreted Alkaline Phosphatase Day 2 ([2]; dose period 3 day): 11,126 ng/ml mouse sera
Secreted Alkaline Phosphatase Day 3 ([2]; dose period 3 day): 20,373 ng/ml mouse sera
Secreted Alkaline Phosphatase Day 7 ([2]; dose period 3 day): 11,549 ng/ml mouse sera
solubility [1]: ≤ 0.2 µg/mL

CCc1c(C(=O)NN(C(=O)c2ccc(F)c(C(F)(F)F)c2)C(C)(C)C)ccc2c1OCCO2 [RG-115280]
Solubility pH 7.4 [1]: 0.0012 mg/mL

COc1ccc(C(=O)N(NC(=O)c2ccc3c(c2C)OCCO3)C(C)(C)C)c(OC)n1 [RG-115517, 2,6-dimethoxy-nicotinic acid N-tert-butyl-N′-(5-methyl-2,3-dihydro-benzo[1,4]dioxine-6-carbonyl)-hydrazide]
solubility [1]: 14 µg/mL (≈ 32.6 µM)

COc1cnccc1C(=O)N(NC(=O)c1cccc(O)c1C)C(C)(C)C [RG-115595]
Solubility pH 7.4 [1]: 0.026 mg/mL

CCCC(N(NC(=O)c1cccc(OC)c1C)C(=O)c1cc(C)cc(C)c1)C(C)(C)C (stereo not drawn) [RG-115823]
Solubility pH 7.4 [1]: 0.0003 mg/mL
